Read-outs that look alike come from different tables or passages of the source.
What was measured:
[1] = test system: patients with primary aldosteronism
Protocol: (§1) A double-blind, randomized, Phase 2 trial was conducted between November 2019 and June 2022 at 11 centres in Italy, Switzerland and the Netherlands (NCT04007406). […] Patients requiring fixed-dose antihypertensive therapy continued treatment throughout the study; steroid therapies, β-adrenergic and renin-angiotensin-aldosterone system blockers were not permitted. At 14-day intervals, office blood pressures were recorded and blood samples were taken for measurement of steroid and peptide hormones and electrolytes at a central laboratory.
Plasma aldosterone and plasma renin concentration were measured centrally under GCP regulations using the Liaison® chemiluminescent immunoassay kit supplied by DiaSorin S.p.A. Italy. The system used specific monoclonal antibodies to prevent cross reactions with other major potential reactants in the serum samples. The monoclonal antibodies directed against specific epitopes of the renin molecule allowed accurate and sensitive quantification. The assays were performed according to the instructions provided by the manufacturer. […] The analytical sensitivity was <0.97 ng/ml. […] The analytical sensitivity was <0.53 IU/mL.

[2] = test system: patients with primary aldosteronism; remark: listed apart in the source
Protocol: as §1
Blood pressure and pulse rate were measured at each visit after a >15-minute rest in sitting position. Blood pressure and pulse rate were measured using a locally calibrated and validated automated oscillometric device (e.g., Omron Healthcare). An adapted wrap cuff was placed on the dominant arm. Three repeat measurements with a 10-minute interval were recorded; the average of the 2nd and 3rd measurements were study relevant.
For all efficacy endpoints, changes from baseline were calculated from linear models and accompanied by 95% confidence intervals and p values. Log-transformed values were used for changes in ARR. The full analysis set (FAS) and safety set were defined as all randomized patients who received at least one dose of study drug.

[3] = 4 mg once daily, n=10, Day 1 (baseline)
[4] = 4 mg once daily, n=10, Day 70 (after placebo withdrawal)
[5] = 8 mg once daily, n=12, Day 1 (baseline)
[6] = 8 mg once daily, n=12, Day 70 (after placebo withdrawal)

**Q.** Which results are given for “(R)-(+)-5-(p-cyanophenyl)-5,6,7,8-tetrahydroimidazolium[1,5-a]pyridine dihydrogen phosphate [dexfadrostat phosphate]”?
**A.** plasma aldosterone concentration, mean ([1]; baseline aldosterone 600-1000 pmol/L, 8 mg QD, Day 28): 120 pmol/L; plasma aldosterone concentration, mean ([1]; baseline aldosterone 600-1000 pmol/L, 8 mg QD, Day 42): 123 pmol/L; plasma aldosterone concentration, mean ([1]; baseline aldosterone 600-1000 pmol/L, 8 mg QD, Day 56): 131 pmol/L; plasma aldosterone concentration, mean ([1]; baseline aldosterone 600-1000 pmol/L, 8 mg QD, Day 70 (placebo withdrawal)): 423 pmol/L; plasma aldosterone concentration, mean ([1]; baseline aldosterone 600-1000 pmol/L, 12 mg QD, Day 1 (baseline)): 912 pmol/L; plasma aldosterone concentration, mean ([1]; baseline aldosterone 600-1000 pmol/L, 12 mg QD, Day 14): 123 pmol/L; plasma aldosterone concentration, mean ([1]; baseline aldosterone 600-1000 pmol/L, 12 mg QD, Day 28): 104 pmol/L; plasma aldosterone concentration, mean ([1]; baseline aldosterone 600-1000 pmol/L, 12 mg QD, Day 42): 85 pmol/L; plasma aldosterone concentration, mean ([1]; baseline aldosterone 600-1000 pmol/L, 12 mg QD, Day 56): 82 pmol/L; plasma aldosterone concentration, mean ([1]; baseline aldosterone 600-1000 pmol/L, 12 mg QD, Day 70 (placebo withdrawal)): 466 pmol/L; plasma aldosterone concentration, mean ([1]; baseline aldosterone 1000-2500 pmol/L, 4 mg QD, Day 1 (baseline)): 2005 pmol/L; plasma aldosterone concentration, mean ([1]; baseline aldosterone 1000-2500 pmol/L, 4 mg QD, Day 14): 816 pmol/L; plasma aldosterone concentration, mean ([1]; baseline aldosterone 1000-2500 pmol/L, 4 mg QD, Day 28): 531 pmol/L; plasma aldosterone concentration, mean ([1]; baseline aldosterone 1000-2500 pmol/L, 4 mg QD, Day 42): 629 pmol/L; plasma aldosterone concentration, mean ([1]; baseline aldosterone 1000-2500 pmol/L, 4 mg QD, Day 56): 589 pmol/L; plasma aldosterone concentration, mean ([1]; baseline aldosterone 1000-2500 pmol/L, 4 mg QD, Day 70 (placebo withdrawal)): 1393 pmol/L; plasma aldosterone concentration, mean ([1]; baseline aldosterone 1000-2500 pmol/L, 8 mg QD, Day 1 (baseline)): 1080 pmol/L; plasma aldosterone concentration, mean ([1]; baseline aldosterone 1000-2500 pmol/L, 8 mg QD, Day 14): 27 pmol/L; plasma aldosterone concentration, mean ([1]; baseline aldosterone 1000-2500 pmol/L, 8 mg QD, Day 28): 57 pmol/L; plasma aldosterone concentration, mean ([1]; baseline aldosterone 1000-2500 pmol/L, 8 mg QD, Day 42): 27 pmol/L; plasma aldosterone concentration, mean ([1]; baseline aldosterone 1000-2500 pmol/L, 8 mg QD, Day 56): 27 pmol/L; plasma aldosterone concentration, mean ([1]; baseline aldosterone 1000-2500 pmol/L, 8 mg QD, Day 70 (placebo withdrawal)): 395 pmol/L; plasma aldosterone concentration, mean ([1]; baseline aldosterone 1000-2500 pmol/L, 12 mg QD, Day 1 (baseline)): 1410 pmol/L; plasma aldosterone concentration, mean ([1]; baseline aldosterone 1000-2500 pmol/L, 12 mg QD, Day 14): 111 pmol/L; plasma aldosterone concentration, mean ([1]; baseline aldosterone 1000-2500 pmol/L, 12 mg QD, Day 28): 74 pmol/L; plasma aldosterone concentration, mean ([1]; baseline aldosterone 1000-2500 pmol/L, 12 mg QD, Day 42): 71 pmol/L; plasma aldosterone concentration, mean ([1]; baseline aldosterone 1000-2500 pmol/L, 12 mg QD, Day 56): 349 pmol/L; plasma aldosterone concentration, mean ([1]; baseline aldosterone 1000-2500 pmol/L, 12 mg QD, Day 70 (placebo withdrawal)): 1264 pmol/L; office blood pressure (oSBP), mean [2, 3]: 146.95 mmHg; office blood pressure (oSBP), median [2, 3]: 144.00 mmHg; office blood pressure (oSBP), mean ([2]; 4 mg once daily, n=10, Day 14): 134.55 mmHg; office blood pressure (oSBP), median ([2]; 4 mg once daily, n=10, Day 14): 136.25 mmHg; office blood pressure (oSBP), mean ([2]; 4 mg once daily, n=10, Day 28): 133.70 mmHg; office blood pressure (oSBP), median ([2]; 4 mg once daily, n=10, Day 28): 130.50 mmHg; office blood pressure (oSBP), mean ([2]; 4 mg once daily, n=10, Day 42): 134.90 mmHg; office blood pressure (oSBP), median ([2]; 4 mg once daily, n=10, Day 42): 132.75 mmHg; office blood pressure (oSBP), mean ([2]; 4 mg once daily, n=10, Day 56): 133.00 mmHg; office blood pressure (oSBP), median ([2]; 4 mg once daily, n=10, Day 56): 133.75 mmHg; office blood pressure (oSBP), mean [2, 4]: 142.20 mmHg; office blood pressure (oSBP), median [2, 4]: 145.25 mmHg; office blood pressure (oSBP), mean [2, 5]: 148.00 mmHg; office blood pressure (oSBP), median [2, 5]: 147.00 mmHg; office blood pressure (oSBP), mean ([2]; 8 mg once daily, n=12, Day 14): 137.88 mmHg; office blood pressure (oSBP), median ([2]; 8 mg once daily, n=12, Day 14): 137.50 mmHg; office blood pressure (oSBP), mean ([2]; 8 mg once daily, n=12, Day 28): 135.08 mmHg; office blood pressure (oSBP), median ([2]; 8 mg once daily, n=12, Day 28): 133.25 mmHg; office blood pressure (oSBP), mean ([2]; 8 mg once daily, n=12, Day 42): 137.83 mmHg; office blood pressure (oSBP), median ([2]; 8 mg once daily, n=12, Day 42): 134.50 mmHg; office blood pressure (oSBP), mean ([2]; 8 mg once daily, n=12, Day 56): 134.42 mmHg; office blood pressure (oSBP), median ([2]; 8 mg once daily, n=12, Day 56): 135.75 mmHg; office blood pressure (oSBP), mean [2, 6]: 142.46 mmHg; office blood pressure (oSBP), median [2, 6]: 139.75 mmHg; office blood pressure upon drug withdrawal ([2]; Day 70, after 14-day placebo withdrawal): blood pressure values returned towards baseline levels; effect on office blood pressure ([2]; each dose arm, sustained over active treatment period): rapid and significant (p≤0.001) decrease in office blood pressure

— patent US20260124184A1, “ONCE DAILY ALDOSTERONE SYNTHASE INHIBITOR (R)-(+)-5-(P-CYANOPHENYL)-5,6,7,8-TETRAHYDROIMIDAZO[L,5-A]PYRIDINE” (priority 2022, published 2026)
